Test results: a melting point compilation (Tetko et al.; mined from patent text by program, amines drawn as free bases though some values may be those of a salt)

Compound | melting point [°C]
COc1ccc(-c2nc3nccnc3[nH]2)c(OC)c1 | 210 to 215
Cc1cc(-c2ccccc2)n2nc(C)c(C#N)c2n1 | 175 to 177
COCCNC(=O)c1cc(F)cc(-c2cccc3c(C)c(Cc4cccc(C(F)(F)F)c4)sc23)c1 | 124 to 126
CCCCCCCCCCCCCCCCCNC(=O)OCCSCCOC(=O)NCc1ccccn1 | 73 to 74
CC1(C)CSc2sc(S(N)(=O)=O)cc2C1O (stereo not given) | 158 to 159
NC(=O)c1cnn2c(-c3cccc(C(F)(F)F)c3)ccnc12 | 256 to 258
O=C(N=c1sc2cc(OC(F)(F)F)ccc2n1CCO)C(F)(F)F | 144
C=CCOC(=O)CCCS(=O)C1CC(=O)N1CC(=O)NCCCCCCc1ccc(F)cc1 (stereo not given) | 95 to 96
O=[N+]([O-])c1cc(Cl)c(OCC(F)(F)F)cc1F | 54 to 55
COc1ccc(Cc2cc(C(C)(C)C)c(O)c(C(C)(C)C)c2)cc1 | 139
Cn1c(COc2ccc(CC3SC(=O)NC3=O)cc2)nc2ccc(O)nc21 (stereo not given) | 240 to 242
COC(=O)c1sc(C)c(Cl)c1O | 105 to 107
COc1ccc(CC2(C)CN(C(c3ccccc3)c3ccccc3)CCN2)cc1OC (stereo not given) | 123
O=C1Nc2ccccc2C12COc1cc3c(cc12)N(Cc1ccccn1)CC=N3 (stereo not given) | 232 to 233
N=C(N)Nc1ncc(Cl)c2ccc(C(=O)NCCC(=O)O)cc12 | 235 to 236
CC(C)C(=O)O[C@H]1[C@H](C)OC(=O)[C@@H](NC(=O)OC(C)(C)C)COC(=O)[C@@H]1CC(=O)OC(C)(C)C | 170 to 172
OC(Cn1cncn1)(Cn1ncnc1C=Cc1ccc(Cl)cc1)c1ccc(Cl)cc1Cl (stereo not given) | 193 to 196
CC(C)Oc1ccc(-c2nn(C(C)c3oc4cccc(F)c4c(=O)c3-c3cccc(F)c3)c3ncnc(N)c23)cc1F (stereo not given) | 228 to 230
CC(C)(C)OC(=O)CC(C#N)c1ccc(Cl)c(Cl)c1 (stereo not given) | 67
Brc1cc(Br)c(-c2ccccc2)nn1 | 145 to 146
CC(C)(C)OC(=O)N1C[C@H](C#N)C[C@H]1C(=O)OCc1ccccc1 | 97 to 99
CC(C)=CCOc1ccc(C(=O)C=Cc2cccnc2)c(O)c1 | 177 to 179
COc1cc(CCC(=O)CC(=O)CCc2ccc(O)c(OC)c2)ccc1O | 92 to 94
CCOn1c(C)nc(N2CCc3ccccc3CC2)c(C#N)c1=O | 149 to 152
O=c1c2cccc3c2c(cn1C1CN2CCC1CC2)CC3 (racemic) | 146 to 147

Compound | melting point [°C]
N[C@@H](C/C(=C\C1CCCC1)C(=O)O)C(=O)O | 173 to 175
CCC(C)CNC(=O)c1ccc2c(c1)N(C(C)CN(C)CC)c1ccccc1S2 (mixture of isomers) | 95
C#CCn1c(=O)n(C(C)C)c2ccc(-c3ncc(C(F)(F)F)cc3Cl)cc21 | 109 to 111
COc1ccc(C(=C(c2ccc(C#N)cc2)n2ccnc2)c2ccc(OC)cc2)cc1 | 174 to 176
CN(C)C1(c2ccccc2)CCC(c2c[nH]c3ncccc23)CC1 (stereo not given) | 130 to 133
C#CCCC(O)=C(C#N)C(=O)Nc1ccc(C(F)(F)F)cc1 | 172
CCN(CC)C(=O)c1ccc2ccccc2c1-c1ccc(C)cc1 | 181 to 183
Cc1ccc2[nH]c(C(=O)O)cc2c1O | 262
O=C(O)c1c(Cl)c([N+](=O)[O-])cc([N+](=O)[O-])c1Nc1ccc(OCc2ccccc2)cc1 | 208 to 211
CC(C)c1cnn2c(NCc3ccccc3)nc(Cl)cc12 | 74 to 75
Cc1nc2c3c(c(C(N)=O)cc2n1C)CCC(c1ccccc1)O3 (stereo not given) | 264 to 267
O=C(O)c1ccc2c(c1)C(=C(Cl)Cl)OC(=C(Cl)Cl)O2 | 199 to 200
CN(C)C(=S)Sc1sn(CCc2ccccc2)c(=O)c1Cl | 125 to 127
O=Cc1ccc(I)nc1 | 141
CC1(C(=O)c2c[nH]c3ncc(Br)nc23)CCCCC1 | 198 to 199
Nc1nc2c(ncn2COCC=O)c(=O)[nH]1 | 350
COc1cc2c(cc1OC)C(CCN1CCN(c3cccc(Cl)c3)CC1)OCCC2 (stereo not given) | 125 to 126
CCOC(=O)c1oc2cc(SC(=O)N(C)C)ccc2c1C | 112 to 114
COc1ccc(OC)c(NC(=O)Cc2ccccc2)c1 | 85
CC1(C)CC(OC(=O)c2ccccc2)CC(C)(C)N1O | 145 to 149
CSc1cc(C)nc(SC)c1NC(=O)CCl | 190 to 192
Nc1nc(Cl)c(C(F)(F)F)cc1Cl | 110 to 112
CCOC(=O)c1ccc(CCC(=O)CO)cc1 | 51 to 52
CCCc1c(OCCOc2ccc3c(=O)cc(-c4ccc(C(=O)OCC)cc4)oc3c2CCC)ccc(C(C)=O)c1O | 167 to 168
CC(C)C(=O)c1cn(Cc2c(F)cccc2F)c2sc(-c3ccc([N+](=O)[O-])cc3)c(CBr)c2c1=O | 202 to 204

Compound | melting point [°C]
Oc1ccc2nc(-c3cccc4ccccc34)oc2c1 | 185 to 187
CC(=O)NCC1(C)OCCc2c1[nH]c1ccccc21 (stereo not given) | 100 to 102
CCOC(=O)c1ccc(N(C=O)Cc2ccc(Cl)cc2)cc1 | 72 to 73
COc1cc(-c2ccc3cc4c(cc3c2C=O)OCO4)c([N+](=O)[O-])cc1OC | 225
O=C1c2ccccc2C(=O)N1Nc1ccccc1 | 180
CCOC(=O)N1C=CSC1C1=C(C)N=CC(OC)(OC)S1 (stereo not given) | 148 to 149
CCCCCCCCNc1c(Nc2ccc(CC(C)NC[C@H](O)COc3ccccc3)cc2)c(=O)c1=O (stereo not given in full) | 146 to 155
COc1ccc([C@@H]2O[C@H]2C(=O)Nc2ccccc2)cc1 | 162 to 163
CNc1nonc1-c1nc2ccccc2n1CC(=O)c1ccc(Cl)cc1 | 210 to 214
Nc1cccc(NNC=O)c1 | 108 to 113
CCOC(=O)/C(=C\Nc1cccc(OC)c1)c1ccccc1 | 49 to 50
CC(C)c1cccc(C(C)C)c1NC(=O)Nc1ccccc1CCc1cc(C(C)(C)C)c(O)c(C(C)(C)C)c1 | 209 to 210
CN1C(=O)C(C)(C)N=C(c2ccccc2F)c2cc(NC(=O)C(C)(C)N)ccc21 | 250
CC(C#N)c1ccc2nc(-c3ccccc3)ccc2c1 (stereo not given) | 126
CN(C)C1=C(c2cccc(C(F)(F)F)c2)C(=O)OC1 | 110
CC1CCCCN(C(=O)C2Cc3ccccc3N2c2ccc(=O)n(C)n2)C1 (stereo not given) | 109 to 112
O=C(Nc1ccccc1)OCC1c2ccccc2Oc2ccccc21 | 180 to 181
COc1ccc(C2(C#N)CCC(C(N)=O)CC2)cc1OC1CCCC1 (stereo not given) | 100 to 102
CCN(CC)C(=O)c1cc(-c2ccccc2)c2ccccc2c1 | 123 to 124
C=CCOc1nc(N)nc(-c2ccccc2)c1-c1ccc(=O)n(C(C)C)n1 | 130 to 132
CC(C)(C)c1cc(C(=O)COc2ccc(C(=O)OCc3ccccc3)c(O)c2)cc(C(C)(C)C)c1O | 123 to 124
CCOC(=O)C(=CNc1ccc(F)c(SCC)n1)C(=O)OCC | 77.5 to 78.5
CCC(CC)Sc1cc2c(cc1Cl)N=C(CCl)NS2(=O)=O | 213 to 214
COc1ccc(-c2nsc(C(=O)O)c2C(=O)O)cc1OC | 190 to 192
CCOC(=O)c1ncn2c1[C@@H]1CCCN1C(=O)c1sccc1-2 | 212 to 213

Compound | melting point [°C]
Cn1ncc2c1-c1c(S(C)(=O)=O)sc(S(=O)(=O)Cl)c1CC2 | 81 to 82
CCC(C)N(C(=O)c1cc(-c2ccccc2Cl)nc2ccccc12)C(C)CC (stereo not given) | 120
Cc1c(OCC(F)(F)F)ccnc1CSc1nc2cc(N3CCN(C)CC3)c(F)cc2[nH]1 | 109 to 110
CC(C)CC(=O)C(=O)OCc1ccccc1 | 98 to 100
CC1(C)Oc2ccc(Cl)cc2C(NS(C)(=O)=O)C1O (stereo not given) | 198 to 202
Cc1ccc([N+](=O)[O-])c(-c2nc(C(F)(F)F)cs2)c1 | 98 to 104
C#Cc1cn(-c2c(Cl)cc(C(F)(F)F)cc2Cl)nc1C(F)(F)F | 95 to 98
O=CNc1ccc(F)c(Cl)c1 | 94 to 97
Oc1ccc(Nc2nc(NCc3ccco3)nc(Nc3ccc(F)c(F)c3)n2)cc1 | 75 to 77
COc1ccc(C2=NN(CCCCCCN)C(=O)[C@H]3CC=CC[C@@H]23)cc1OC (relative stereo) | 141 to 143
CS(=O)c1c(C#N)nn(-c2c(Cl)cc(C(F)(F)F)cc2Cl)c1NCC(N)=O (stereo not given) | 155 to 157
Oc1ccc(Sc2cccc(F)n2)cc1 | 123 to 124
COc1ccc(Cl)cc1NC(=O)[C@H]1[C@H](c2ccc(S(N)(=O)=O)cc2)C12CCCCC2 (relative stereo) | 118 to 121
Cc1ccc(N=C=S)c(C)c1COC(=O)[C@H]1[C@@H](C=C(Cl)C(F)(F)F)C1(C)C (relative stereo) | 60
O=C(c1ccc2nonc2c1)N1C2CCC1CC(F)(F)C2 | 165 to 166
CC(=O)c1ccc(S(=O)(=O)NCc2ccccc2-c2ccccc2C(=O)NCCc2ccccc2)cc1 | 145
CCOC(=O)c1c(Cn2cnnc2)nc2cc(OC)c(OC)cc2c1-c1ccc(OC)cc1 | 218 to 219
CCc1c(N)nc(-c2ccc(Cl)c(OC)c2F)nc1C(=O)OC | 144 to 146
Oc1ccc2c(c1)CCCC(c1ccccc1)=C2c1ccc(OCCCl)cc1 | 238 to 240
CCOC(=NC(=O)c1ccccc1C(F)(F)F)c1ccccc1Cl | 64 to 65
O=[N+]([O-])c1ccc(CF)cc1 | 33 to 34
Oc1ccc2c(c1)OC=C(CN1CCN(C(c3ccc(F)cc3)c3ccc(F)cc3)CC1)O2 | 190
CCCCc1ncc(C=C2C(=O)Nc3ccccc32)n1Cc1ccc(C(=O)OCC)cc1 | 169 to 171
CONC1=NC(=O)C(=Cc2cccc(-c3cc(F)c(O)c(C45CC6CC(CC(C6)C4)C5)c3)c2)S1 | 286 to 288
Cc1c(-c2c(C)c3ccccc3n2S(=O)(=O)c2ccccc2)n(S(=O)(=O)c2ccccc2)c2ccccc12 | 224
